In one test the test system is Rhizoctonia solani. In words: field trial sheath blight on rice in Thailand, percentage disease. The format is in vivo. As to conditions: 750 g/ha, 2 sprays at 7 day interval; for percentage of disease (%): location L1; for percentage of sheath blight disease (%): location L2. The procedure:
A field trial was established to test the efficacy of different compositions for control of sheath blight (Rhizoctonia solani) on rice in Thailand at two locations: L1: Bang Kham, Sriprachan, Suphanburi; and L2: Don Pru, Sriprachan, Suphanburi. Disease inoculation was performed 14 days before 1st spray.
At location L1, experimental design was randomize complete block (RCB); number of different treatments: six as provided in Table 11; number of replications: 4; plot size: 6×5 m/plot; rice variety: PTT1; and spray volume: 312.5 L/ha. One treatment had 4 replications, with one replication having 10 samplings.
Data assessments included percentage of length (cm) of the symptom infected and length of the plant (cm) before 1st spray; before 2nd spray; 7 days after 2nd spray; at 2 weeks after 2nd spray; at 3 weeks after 2nd spray; and at 2 weeks before harvest.
The percentage disease was calculated as follows:
Disease (%)=[length of infection symptom (cm)/length of plant (cm)]×100
At location L2, experimental design was randomize complete block (RCB); number of different treatments: six as provided in Table 11; number of replications: 4; plot size: 6×5 m/plot; rice variety: PTT1; and spray volume: 312.5 L/ha. One treatment had 4 replications, with one replication having 10 samplings.
Data assessments included percentage of length (cm) of the symptom infected and length of the plant (cm) before 1st spray; before 2nd spray; 7 days after 2nd spray; 2 weeks after 2nd spray; at 3 weeks after 2nd spray; and at 2 weeks before harvest.

A further test has as its system rice plants. The format is in vivo, rice variety: PTT1. Particulars: 750 g/ha; for Yield (kg/plot): plot 9 m2, 120 DAS.

SMILES strings stand for the structures. Like-named read-outs stand apart in the source and are kept apart here.

In the case of `Cc1cccc2sc3nncn3c12` [Tricyclazole], the “percentage of disease (%)” value in the test with Rhizoctonia solani (2 WBH (106 DAS)) is 35.63 b %; in the test on Rhizoctonia solani (7 DAA#2 (89 DAS)) it was 35.66 bc %; in the test on Rhizoctonia solani (14 DAA#2 (96 DAS)) it was 37.90 c %; with Rhizoctonia solani (21 DAA#2 (103 DAS)) it was 35.89 c %; with Rhizoctonia solani (BA#1 (before 1st spray, 75 DAS)) it was 22.57 a %; in the test on Rhizoctonia solani (BA#2 (before 2nd spray, 82 DAS)), 40.05 bc %. Also, the “percentage of sheath blight disease (%)” value is 39.11 b % in the test with Rhizoctonia solani (2 WBH (106 DAS)); 37.90 bc % with Rhizoctonia solani (7 DAA#2 (84 DAS)); 38.71 d % with Rhizoctonia solani (14 DAA#2 (91 DAS)); 39.75 d % in the test on Rhizoctonia solani (21 DAA#2 (98 DAS)); 26.10 a % in the test on Rhizoctonia solani (BA#1 (before 1st spray, 70 DAS)); 32.67 b % in the test on Rhizoctonia solani (BA#2 (before 2nd spray, 77 DAS)). Besides, the “Yield (kg/ha)” value was 5861.11 kg/ha in the test with rice plants (location L1) and 6638.89 ab kg/ha in the test on rice plants (location L2). Further, the “Yield (kg/rai)” value in the test on rice plants (location L1) is 937.78 kg/rai; in the test with rice plants (location L2), 1062.22 kg/rai. The “Yield (kg/plot)” value with rice plants (location L1) is given as 5.28 kg/plot; in the test with rice plants (location L2), 5.98 kg/plot.

The values above are taken from patent publication US20240057596A1 (priority 2021, published 2024).
